Data on six molecules can be found in patent publication US4175123A, “Amino-sugar derivatives, process for their preparation and pharmaceutical composition thereof” (Bayer Aktiengesellschaft, priority 1976, dated 1979).

Each structure is given as a SMILES string.

For assay [1], the system named is small intestine of fasting male Wistar rats (glucose absorption). Put plainly: In vitro method for the inhibition of glucose absorption (small intestine rings, D-glucose-14C). On the set-up: species or system rat (male Wistar). The following applies: Rattus norvegicus, 2 min; 10 mg/ml; 2 minutes at 37° C., pH 7.4, D-glucose-14C 10 mg/ml. The method, then: In vitro method for the inhibition of glucose absorption
The upper part of the small intestine of fasting male Wistar rats is folded over and cut into rings about 3 mm wide. 10 of these rings (~150 mg moist weight) are incubated for 2 minutes at 37° C. in 5 ml of Krebs-Ringer bicarbonate buffer (pH 7.4) with D-glucose-^14 C (U) (10 mg/ml, 0.2 μCi/ml), with the addition of the active compounds. The washed and dried-off intestine rings are weighted, dissolved in 5 ml of Digestin (Merck)/isopropanol (1:1) and the radioactivity absorbed in the tissue is determined in a liquid scintillation counter. All values are corrected using the radioactivity absorbed in the tissue as D-mannitol-1-^14 C.
In vitro inhibitions of the glucose absorption by some selected compounds (10 mg/ml): […]

The test system of assay [2] is glucosidase. In words: Sucrose feeding test: postprandial blood sugar after oral sucrose + glucosidase inhibitor in fasting rats. It counts as in vivo, rat. The method, then: (§1) The in vivo activity of the compound was tested on some examples using the experimental arrangement described in the following text.
(§2) Oral administration of starch or sucrose causes a rise in the blood sugar in warm-blooded animals, provided that the carbohydrates are enzymatically degraded in the small intestine to monosaccharides. The inhibition of their enzymatic hydrolysis by glucosidase inhibitors causes a reduced rise in the blood sugar.
(§3) In order to detect the action of glucosidase inhibitors, 6 fasting rats receive perorally, 1 g of broiled starch or 2.5 g of sucrose/kg in the form of an aqueous suspension or in the form of an aqueous solution (starch and sucrose control respectively). An equal number of rats receive the glucosidase inhibitor in the dose indicated, together with the same amount of the carbohydrate concerned. An equal volume of physiological sodium chloride solution is administered orally to a further six rats (control). After administration of the carbohydrate concerned±glucosidae inhibitor, the postprandial change in blood sugar is measured, at the times indicated, in blood from the postorbital venous plexus in an auto-analyser according to the method of W. S. Hoffmann [J biol. Chem 120, 51 (1937)].

In assay [3] the test system is glucosidase. In words: Starch feeding test: postprandial blood sugar after oral starch + glucosidase inhibitor in fasting rats. It counts as in vivo, rat. The method, then:
as §1, §2, §3

On to `CCCCCCCCCCCCCCCCO[C@@H]1O[C@H](CO)[C@@H](O[C@H]2O[C@H](CO)[C@@H](O[C@H]3O[C@H](C)[C@@H](N[C@H]4C=C(CO)[C@@H](O)[C@H](O)[C@H]4O)[C@H](O)[C@H]3O)[C@H](O)[C@H]2O)[C@H](O)[C@H]1O` [Example 4, 18, n-Hexadecyl-O-{C}-(1→4)-O-α-D-glcp-(1→4)-β-D-glucopyranoside], for which, in assay [1], the inhibition (commonly the share of the control response that was lost under treatment) at 10000 µg/mL was more than 50%.

Regarding `C[C@H]1O[C@H](O[C@H]2[C@H](O)[C@@H](O)[C@@H](O[C@H]3[C@H](O)[C@@H](O)[C@H](Oc4ccc(C(C)(C)C)cc4)O[C@@H]3CO)O[C@@H]2CO)[C@H](O)[C@@H](O)[C@@H]1N[C@H]1C=C(CO)[C@@H](O)[C@H](O)[C@H]1O` [Example 1, 9, p-tert-Butylphenyl-O-{C}-(1→4)-O-α-D-glcp-(1→4)-β-D glucopyranoside], the “Blood sugar ± standard deviation, 15 minutes” value with glucosidase [2] (3.0 mg/kg perorally + 2.5 g sucrose/kg, sucrose control 134 ± 13, fasting control 71 ± 3.7) amounted to 85 ± 4.8 mg/dL. Besides, the “Blood sugar ± standard deviation, 30 minutes” value in the assay with glucosidase [2] (3.0 mg/kg perorally + 2.5 g sucrose/kg, sucrose control 116 ± 20, fasting control 70 ± 5.3) came out at 83 ± 7.9 mg/dL. Besides, the “Blood sugar ± standard deviation, 45 minutes” value in the assay with glucosidase [2] (3.0 mg/kg perorally + 2.5 g sucrose/kg, sucrose control 125 ± 8.6, fasting control 77 ± 5.5) was determined as 88 ± 3.4 mg/dL. Also, the “Blood sugar ± standard deviation, 60 minutes” value in the assay with glucosidase [2] (3.0 mg/kg perorally + 2.5 g sucrose/kg, sucrose control 112 ± 15, fasting control 78 ± 7.3) is 92 ± 9.4 mg/dL. Also, in assay [1], the inhibition at 10000 µg/mL was more than 50%.

Take `C[C@H]1O[C@H](O[C@H]2[C@H](O)[C@@H](O)[C@@H](O[C@H]3[C@H](O)[C@@H](O)[C@H](Oc4ccc(O)cc4)O[C@@H]3CO)O[C@@H]2CO)[C@H](O)[C@@H](O)[C@@H]1N[C@H]1C=C(CO)[C@@H](O)[C@H](O)[C@H]1O` [Example 1, 8, p-Hydroxyphenyl-O-{C}-(1→4)-O-α-D-glcp-(1→4)-β-D- glucopyranoside]: the “Blood sugar ± standard deviation, 15 minutes” value was 112 ± 3.1 mg/dL with glucosidase [2] (0.65 mg/kg perorally + 2.5 g sucrose/kg, sucrose control 128 ± 8.0, fasting control 60 ± 4.6) and 112 ± 9.9 mg/dL in the assay with glucosidase [3] (0.65 mg/kg perorally + 1 g starch/kg, starch control 131 ± 7.2, fasting control 60 ± 4.2). Also, the “Blood sugar ± standard deviation, 30 minutes” value came to 114 ± 6.3 mg/dL in the assay with glucosidase [2] (0.65 mg/kg perorally + 2.5 g sucrose/kg, sucrose control 133 ± 8.7, fasting control 64 ± 3.7) and 109 ± 12 mg/dL with glucosidase [3] (0.65 mg/kg perorally + 1 g starch/kg, starch control 113 ± 9.2, fasting control 62 ± 3.4). Besides, the “Blood sugar ± standard deviation, 45 minutes” value in the assay on glucosidase [2] (0.65 mg/kg perorally + 2.5 g sucrose/kg, sucrose control 134 ± 6.1, fasting control 73 ± 7.1) is 119 ± 9.4 mg/dL. Also, the “Blood sugar ± standard deviation, 60 minutes” value with glucosidase [2] (0.65 mg/kg perorally + 2.5 g sucrose/kg, sucrose control 119 ± 10, fasting control 66 ± 4.2) was 112 ± 4.3 mg/dL. In assay [1], this molecule showed an inhibition at 10000 µg/mL of 25 to 50%.

As to `C[C@H]1O[C@H](O[C@H]2[C@H](O)[C@@H](O)[C@H](OCc3ccccc3)O[C@@H]2CO)[C@H](O)[C@@H](O)[C@@H]1N[C@H]1C=C(CO)[C@@H](O)[C@H](O)[C@H]1O` [Compound 20, Benzyl-O-{C}-(1→4)-β-D-glucopyranoside], the “Blood sugar ± standard deviation, 15 minutes” value in the assay on glucosidase [2] (10 mg/kg perorally + 2.5 g sucrose/kg, sucrose control 113 ± 6.5, fasting control 61 ± 13) came to 83 ± 20 mg/dL; with glucosidase [3] (10 mg/kg perorally + 1 g starch/kg, starch control 146 ± 19, fasting control 82 ± 12) it was 87 ± 12 mg/dL. Also, the “Blood sugar ± standard deviation, 30 minutes” value in the assay on glucosidase [2] (10 mg/kg perorally + 2.5 g sucrose/kg, sucrose control 116 ± 9.2, fasting control 65 ± 3.9) is 85 ± 8.3 mg/dL; in the assay on glucosidase [3] (10 mg/kg perorally + 1 g starch/kg, starch control 144 ± 8.9, fasting control 72 ± 10) it was 83 ± 13 mg/dL. The “Blood sugar ± standard deviation, 45 minutes” value in the assay on glucosidase [2] (10 mg/kg perorally + 2.5 g sucrose/kg, sucrose control 104 ± 12, fasting control 66 ± 6.9) is 73 ± 8.5 mg/dL; in the assay on glucosidase [3] (10 mg/kg perorally + 1 g starch/kg, 45 minutes, starch control 120 ± 7.9, fasting control 102 ± 6.7) it was 99 ± 17 mg/dL. Also, the “Blood sugar ± standard deviation, 60 minutes” value in the assay with glucosidase [2] (10 mg/kg perorally + 2.5 g sucrose/kg, sucrose control 123 ± 8.1, fasting control 76 ± 3.7) was 69 ± 9.3 mg/dL; with glucosidase [3] (10 mg/kg perorally + 1 g starch/kg, 60 minutes, starch control 118 ± 6.9, fasting control 88 ± 7.4) it was 111 ± 5.6 mg/dL.

In assay [1], `C[C@H]1O[C@H](O[C@H]2[C@H](O)[C@@H](O)[C@@H](O[C@H]3[C@H](O)[C@@H](O)[C@H](Oc4cccc(C(=O)O)c4)O[C@@H]3CO)O[C@@H]2CO)[C@H](O)[C@@H](O)[C@@H]1N[C@H]1C=C(CO)[C@@H](O)[C@H](O)[C@H]1O` [Example 1, 5, m-Carboxyphenyl-O-{C}-(1→4)-O-α-D-glcp-(1→4)-β-D- glucopyranoside] showed an inhibition at 10000 µg/mL of more than 50%.

In the case of `C[C@H]1O[C@H](O[C@H]2[C@H](O)[C@@H](O)[C@@H](O[C@H]3[C@H](O)[C@@H](O)[C@H](Oc4ccc(C(=O)O)cc4)O[C@@H]3CO)O[C@@H]2CO)[C@H](O)[C@@H](O)[C@@H]1N[C@H]1C=C(CO)[C@@H](O)[C@H](O)[C@H]1O` [Example 1, 7, p-Carboxyphenyl-O-{C}-(1→4)-O-α-D-glcp-(1→4)-β-D- glucopyranoside], the “Blood sugar ± standard deviation, 15 minutes” value in the assay with glucosidase [2] (0.92 mg/kg perorally + 2.5 g sucrose/kg, sucrose control 128 ± 8.0, fasting control 60 ± 4.6) turned out to be 110 ± 3.4 mg/dL; in the assay with glucosidase [3] (0.92 mg/kg perorally + 1 g starch/kg, starch control 131 ± 7.2, fasting control 60 ± 4.2), 121 ± 7.7 mg/dL. For the same molecule, the “Blood sugar ± standard deviation, 30 minutes” value in the assay with glucosidase [2] (0.92 mg/kg perorally + 2.5 g sucrose/kg, sucrose control 133 ± 8.7, fasting control 64 ± 3.7) was determined as 118 ± 14 mg/dL; in the assay with glucosidase [3] (0.92 mg/kg perorally + 1 g starch/kg, starch control 113 ± 9.2, fasting control 62 ± 3.4), 112 ± 4.3 mg/dL. For the same molecule, the “Blood sugar ± standard deviation, 45 minutes” value in the assay on glucosidase [2] (0.92 mg/kg perorally + 2.5 g sucrose/kg, sucrose control 134 ± 6.1, fasting control 73 ± 7.1) was 112 ± 10 mg/dL. For the same molecule, the “Blood sugar ± standard deviation, 60 minutes” value in the assay on glucosidase [2] (0.92 mg/kg perorally + 2.5 g sucrose/kg, sucrose control 119 ± 10, fasting control 66 ± 4.2) was 117 ± 9.0 mg/dL. In assay [1], the inhibition at 10000 µg/mL is 25 to 50%.
